This is an account of results in US8748624B2, “Picolinamido-propanoic acid derivatives useful as glucagon receptor antagonists” (Janssen Pharmaceutica NV, priority 2011, dated 2014).

Structures are written as SMILES. Some results are limits rather than exact numbers.

The target in assay [1] is human GCGR (Homo sapiens (Human), UniProt P47871). The experiment in a line: Cellular functional assay, cAMP readout (glucagon-stimulated cAMP in HEK293 cells expressing human GCGR). As to conditions: hGluc-1 HEK cells. In kind it is cell-based. Summed up:
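HEK293 cells stably transfected with full-length human GCGR were exposed to compound for 30 min before a 5-min challenge with […] (final) glucagon. Readout was TR-FRET (LANCE) cAMP versus standard curve; IC50s fitted by non-linear regression and converted to Ki values.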

The target in assay [2] is human glucagon receptor (GCGR) (Homo sapiens (Human), UniProt P47871). The experiment in a line: Inhibition of 125I-glucagon binding to membranes from HEK293 cells expressing the human glucagon receptor. As to conditions: membranes of hGluc-1 HEK cells, 125I-glucagon 0.3 nM. The method, boiled down:
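Filtration binding assay on membranes from HEK293 cells stably expressing full-length human GCGR, 6 μg protein/well, with 0.3 nM ¹²⁵I-glucagon plus compound, 2 h at room temperature. Buffer: 50 mM HEPES pH 7.4, 5 mM MgCl2, 1 mM CaCl2, 0.2% BSA. IC50 by non-linear regression, converted to Ki.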

The mark [3] stands for this setting: LANCE TR-FRET, IC50 converted to Ki, average if tested more than once.
Where [4] appears, read: 2 hours room temperature, IC50 converted to Ki, average if tested more than once.
Where [5] appears, read: meta-substituted comparative compounds (Table 3).

human GCGR, sequence (P47871 26-477): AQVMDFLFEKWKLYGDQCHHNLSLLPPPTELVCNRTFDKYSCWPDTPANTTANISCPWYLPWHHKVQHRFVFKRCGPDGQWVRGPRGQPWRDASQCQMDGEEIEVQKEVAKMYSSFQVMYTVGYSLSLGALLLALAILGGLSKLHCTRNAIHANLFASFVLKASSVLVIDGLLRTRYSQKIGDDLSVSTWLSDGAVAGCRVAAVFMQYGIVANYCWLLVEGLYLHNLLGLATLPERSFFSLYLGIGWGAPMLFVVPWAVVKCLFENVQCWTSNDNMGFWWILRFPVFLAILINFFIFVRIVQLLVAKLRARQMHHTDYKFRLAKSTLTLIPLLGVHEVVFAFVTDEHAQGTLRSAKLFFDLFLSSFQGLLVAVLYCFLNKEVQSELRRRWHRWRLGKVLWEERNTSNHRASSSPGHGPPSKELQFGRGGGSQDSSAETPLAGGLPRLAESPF
human glucagon receptor (GCGR), sequence (P47871 26-477): as above

Regarding `O=C(O)CCNC(=O)c1ccc(-c2cc(C(F)(F)F)ccc2CNc2ccc(-c3ccc(Cl)cc3F)c(Cl)c2)cn1` [Compound 37, 3-(5-(2-(((2,4′-dichloro-2′-fluoro-[1,1′-biphenyl]-4-yl)amino)methyl)-5-(trifluoromethyl)phenyl)picolinamido)propanoic acid], the Ki (usually a measure of affinity in units of concentration, obtained from inhibition or displacement) stood at 30 nM in assay [1] (setting [3]) and 23.2 nM in assay [2] (setting [4]).
For `O=C(O)CCNC(=O)c1ccc(-c2cc(Cl)ccc2C(=O)Nc2ccc(-c3ccc(Cl)cc3)cc2)cn1` [Compound 16, 3-(5-(5-chloro-2-((4% chloro-[1,1′-biphenyl]-4-yl)carbamoyl)phenyl)picolinamido)propanoic acid] the same measures were 50.5 nM and 43.8 nM.
For `O=C(O)CCNC(=O)c1ccc(-c2cc(Cl)ccc2CNc2ccc(-c3ccccc3C(F)(F)F)cc2)cn1` [Compound 131, 3-(5-(5-chloro-2-(((2′-(trifluoromethyl)-[1,1′-biphenyl]-4-yl)amino)methyl)phenyl)picolinamido)propanoic acid] the same measures were 1750 nM and 71.3 nM.
For `O=C(O)CCNC(=O)c1ccc(-c2cc(F)c(F)cc2CNc2ccc(-c3ccc(Cl)cc3)c(Cl)c2)cn1` [Compound 103, 3-(5-(2-(((2,4′-dichloro-[1,1′-biphenyl]-4-yl)amino)methyl)-4,5-difluorophenyl)picolinamido)propanoic acid] the same measures were 68.9 nM and 22.9 nM.
In the case of `O=C(O)CCNC(=O)c1ccc(-c2cc(C(F)(F)F)ccc2CNc2ccc(-c3ccc(F)cc3Cl)cc2)cn1` [Compound 23, 3-(5-(2-(((2′-chloro-4′-fluoro-[1,1′-biphenyl]-4-yl)amino)methyl)-5-(trifluoromethyl)phenyl)picolinamido)propanoic acid], the results for the Ki in assay [1] (setting [3]) and in assay [2] (setting [4]) were 130 nM and 26.1 nM, respectively.
The corresponding values for `Cc1ccc(-c2ccc(NCc3cc(F)c(F)cc3-c3ccc(C(=O)NCCC(=O)O)nc3)cc2C#N)c(F)c1` [Compound 112, 3-(5-(2-(((2-cyano-2′-fluoro-4′-methyl-[1,1′-biphenyl]-4-yl)amino)methyl)-4,5-difluorophenyl)picolinamido)propanoic acid] are 280 nM and 76.5 nM.
For `Cc1cc(Cl)ccc1-c1ccc(NCc2ccc(Cl)cc2-c2ccc(C(=O)NCCC(=O)O)nc2)cc1` [Compound 148, 3-(5-(5-chloro-2-(((4′-chloro-2′-methyl-[1,1′-biphenyl]-4-yl)amino)methyl)phenyl)picolinamido)propanoic acid] the same measures were 34 nM and 18.7 nM.
As to `O=C(O)CCNC(=O)c1ccc(-c2cc(C(F)(F)F)ccc2CNc2ccc(-c3ccc(F)c(C(F)(F)F)c3)c(Cl)c2)cn1` [Compound 31, 3-(5-(2-(((2-chloro-4′-fluoro-3′-(trifluoromethyl)-[1,1′-biphenyl]-4-yl)amino)methyl)-5-(trifluoromethyl)phenyl)picolinamido)propanoic acid], the inhibition constant Ki in assay [1] (setting [3]) was found to be 19.4 nM; in assay [2] (setting [4]), 22.1 nM.
The corresponding values for `O=C(O)CCNC(=O)c1ccc(-c2cc(F)c(F)cc2C(=O)Nc2ccc(-c3ccc(C(F)(F)F)cc3)cc2)cn1` [Compound 96, 3-(5-(4,5-difluoro-2-((4′-(trifluoromethyl)-[1,1′-biphenyl]-4-yl)carbamoyl)phenyl)picolinamido)propanoic acid] are 176 nM and 33.8 nM.
For the molecule `CN(Cc1ccc(Cl)cc1-c1ccc(C(=O)NCCC(=O)O)nc1)c1ccc(-c2ccc(Cl)cc2)cc1` [Compound 17, 3-(5-(5-chloro-2-(((4′-chloro-[1,1′-biphenyl]-4-yl)(methyl)amino)methyl)phenyl)picolinamido)propanoic acid], the Ki in assay [1] (setting [3]) is above 10400 nM; in assay [2] (setting [4]) it was 1480 nM.
The corresponding values for `O=C(O)CCNC(=O)c1ccc(-c2cc(F)ccc2CNc2ccc(-c3ccc(Cl)cc3Cl)c(F)c2)cn1` [Compound 57, 3-(5-(2-(((2′,4′-dichloro-2-fluoro-[1,1′-biphenyl]-4-yl)amino)methyl)-5-fluorophenyl)picolinamido)propanoic acid] are 205 nM and 74.2 nM.
For `CC(C)(C)c1ccc(-c2ccc(NCc3ccc(Cl)cc3-c3ccc(C(=O)NCCC(=O)O)nc3)cc2)cc1` [Compound 59, 3-(5-(2-(((4′-(tert-butyl)-[1,1′-biphenyl]-4-yl)amino)methyl)-5-chlorophenyl)picolinamido)propanoic acid] the same measures were 320 nM and 72.4 nM.
As for `O=C(O)CCNC(=O)c1ccc(-c2cc(Cl)ccc2CNc2ccc(-c3cc(F)cc(F)c3)cc2)cn1` [Compound 137, 3-(5-(5-chloro-2-(((3′,5′-difluoro-[1,1′-biphenyl]-4-yl)amino)methyl)phenyl)picolinamido)propanoic acid], the figures for the Ki in assay [1] (setting [3]) and in assay [2] (setting [4]) were 425 nM and 61.1 nM, respectively.
Consider `O=C(O)CCNC(=O)c1ccc(-c2cc(F)c(F)cc2CNc2ccc(-c3ccc(Cl)cc3Cl)cc2)cn1` [Compound 118, 3-(5-(2-(((2′,4′-dichloro-[1,1′-biphenyl]-4-yl)amino)methyl)-4,5-difluorophenyl)picolinamido)propanoic acid], for which the Ki in assay [1] (setting [3]) is 120 nM; in assay [2] (setting [4]), 67.8 nM.
Turning to `O=C(O)CCNC(=O)c1ccc(-c2cc(C(F)(F)F)ccc2CNc2ccc(-c3ccc(F)c(Cl)c3)c(Cl)c2)cn1` [Compound 35, 3-(5-(2-(((2,3′-dichloro-4′-fluoro-[1,1′-biphenyl]-4-yl)amino)methyl)-5-(trifluoromethyl)phenyl)picolinamido)propanoic acid], the Ki was determined as 35 nM in assay [1] (setting [3]) and 14.4 nM in assay [2] (setting [4]).
Take `O=C(O)CCNC(=O)c1ccc(-c2cc(C(F)(F)F)ccc2CNc2ccc(-c3ccc(C(F)(F)F)cc3Cl)c(Cl)c2)cn1` [Compound 42, 3-(5-(2-(((2,2′-dichloro-4′-(trifluoromethyl)-[1,1′-biphenyl]-4-yl)amino)methyl)-5-(trifluoromethyl)phenyl)picolinamido)propanoic acid]: the Ki in assay [1] (setting [3]) was found to be 20 nM; in assay [2] (setting [4]) it was 16.5 nM.
Turning to `O=C(O)CCNC(=O)c1ccc(-c2cc(F)ccc2CNc2ccc(-c3ccc(Cl)c(Cl)c3)c(F)c2)cn1` [Compound 53, 3-(5-(2-(((3′,4′-dichloro-2-fluoro-[1,1′-biphenyl]-4-yl)amino)methyl)-5-fluorophenyl)picolinamido)propanoic acid], the Ki was determined as 495 nM in assay [1] (setting [3]) and 103 nM in assay [2] (setting [4]).
For the molecule `O=C(O)CCNC(=O)c1ccc(-c2cc(Cl)ccc2CNc2ccc(-c3ccc(Cl)cc3Cl)c(F)c2)cn1` [Compound 92, 3-(5-(5-chloro-2-(((2′,4′-dichloro-2-fluoro-[1,1′-biphenyl]-4-yl)amino)methyl)phenyl)picolinamido)propanoic acid], the inhibitory constant (Ki) was found to be 114 nM in assay [1] (setting [3]) and 19.4 nM in assay [2] (setting [4]).
With `COc1ccc(-c2ccc(NCc3cc(Cl)cc(-c4ccc(C(=O)NCCC(=O)O)nc4)c3)cc2)cc1` [Compound M2, 3-(5-(3-chloro-5-(((4′-methoxy-[1,1′-biphenyl]-4-yl)amino)methyl)phenyl)picolinamido)propanoic acid, reference compound], the values for the Ki in assay [1] (setting [5]) and in assay [2] (setting [5]) were above 10400 nM and above 2700 nM, respectively.
